Results from patent US20050256093A1, “Branched polyamine steroid derivatives” (Leo Pharma, priority 2002, published 2005).
Converted amounts (≈) assume the structure as drawn.

Tests used:
Format in all cases: cell-based
S. epidermis CK5 = experiment: agar cup assay MIC; conditions: Staphylococcus epidermidis
From the text: (§1) In vitro investigations have shown a significant potency of the compounds of the invention against a large number of bacteria including gram-positive and gram-negative strains (Staphyiococci, Streptococci, Corynebacteriae, Mycobacteriae, Proteus, Propionibacterium, Pseudomonas, Neisseriae, E. coli) and fungal strains (Candida and Aspergillus). […] In addition, the studies of post-antibiotic effects point towards a strong bactericidal effect of the compounds of the invention. […] Minimum Inhibitory Concentrations were estimated using an agar cup assay. Bacterial strains were obtained from the American Type Culture Collection or from our own collection of clinical isolates. Colonies from fresh overnight culture were resuspended in saline water to 0.5 MacFarland corresponding to 10^8 CFU/ml. 200 ml Mueller Hinton agar (Oxoid) at 48° C. was inoculated at a concentration of 10^6 CFU/ml and poured into square petri dishes (245×245 mm). Holes were made in the inoculated plates and 200 μl of the compounds to be tested were disposed into each hole. A dilution series of compounds contained six dilution between 0.25 and 125 μg/ml. For Streptococci Mueller Hinton agar was supplemented with 5% sheep blood. Plates were appropriately incubated and zone diameters of growth inhibition were measured using an electronic caliper. MICs were estimated using a linear regression curve between the zone diameter of growth inhibition and the log2 of the sample concentration. The microbiological assay set up is in agreement with the European Pharmacopoeia 3rd edition (1997). The inhibition zones are function of the concentration of the compounds used. Known antibiotics including fusidic acid (FA), mupirocin and linezolid were used as reference compounds.

[1] = tested on: Corynebacterium xerosis FF; experiment: agar cup assay MIC
From the text: as §1

S. aureus N6 = experiment: agar cup assay MIC; conditions: Staphylococcus aureus; S. aureus N6 (Fus. resistant)
From the text: as §1

Asbergillus niger ZM35 = experiment: agar cup assay MIC; conditions: Aspergillus niger
From the text: as §1

S. aureus CJ234F = experiment: agar cup assay MIC; conditions: Staphylococcus aureus; S. aureus CJ234F (MRSA, Fus. resistant)
From the text: as §1

[2] = tested on: Streptococcus pyogenes EC88; experiment: agar cup assay MIC; conditions: agar with 5% sheep blood
From the text: as §1

[3] = tested on: Propionibacterium acnes FN33; experiment: agar cup assay MIC; conditions: Cutibacterium acnes
From the text: as §1

[4] = tested on: Streptococcus faecium EI19; experiment: agar cup assay MIC; conditions: Enterococcus faecium; Streptococcus faecium EI19 (Penicillin resistant); agar with 5% sheep blood
From the text: as §1

[5] = tested on: Saccaromyces cervisiae ZZ7; experiment: agar cup assay MIC; conditions: Saccharomyces cerevisiae
From the text: as §1

S. aureus CJ200 = experiment: agar cup assay MIC; conditions: Staphylococcus aureus
From the text: as §1

S. aureus CJ247 = experiment: agar cup assay MIC; conditions: Staphylococcus aureus
From the text: as §1

Candida albicans ZA = experiment: agar cup assay MIC
From the text: as §1

S. aureus CJ234R = experiment: agar cup assay MIC; conditions: Staphylococcus aureus; S. aureus CJ234R (MRSA, Rifampicin resistant)
From the text: as §1

E. coli HA165 = experiment: agar cup assay MIC; conditions: Escherichia coli
From the text: as §1

[6] = tested on: Pseudomonas aeruginosa BA17; experiment: agar cup assay MIC
From the text: as §1

S. aureus = experiment: Minimum Bactericidal Concentration (MBC), broth culture and colony count; conditions: staphylococci, LB broth, aerobic; concentration twice that of MIC; FIG. 1
Description: (§2) 10^6 bacteria were inoculated in 3 ml growth media (S. aureus—LB broth, S. pyogenes—TH broth) containing approximately 2×MIC, 1×MIC, 0.5×MIC and O×MIC respectively of compound 102 (MIC being relative to the strain being tested). S. aureus strains were grown aerobically, and S. pyogenes anaerobically in a carbon dioxide enriched incubator. Samples were diluted and plated on LA-plates (S. aureus) or blood-agar plates (S. pyogenes) followed by 24 hours incubation at 37° C. before being scored for colonies.

S. pyogenes = experiment: as above; conditions: streptococci, TH broth, anaerobic; concentration twice that of MIC; FIG. 2
Description: as §2

Row | Structure (SMILES) | MIC (S. epidermis CK5) | MIC [1] | MIC (S. aureus N6) | MIC (Asbergillus niger ZM35) | MIC (S. aureus CJ234F) | MIC [2] | MIC [3] | MIC [4] | MIC [5] | MIC (S. aureus CJ200) | MIC (S. aureus CJ247) | MIC (Candida albicans ZA) | MIC (S. aureus CJ234R) | MIC (E. coli HA165) | MIC [6] | bactericidal impact (MBC) (S. aureus) | bactericidal impact (MBC) (S. pyogenes)
1 | CC(=O)O[C@H]1C[C@@]2(C)C(CCC3[C@@]4(C)CC[C@@H](O)[C@@H](C)C4CC[C@@]32C)[C@@H]1[C@H](CCCC(C)C)C(=O)NCCN(CCN)CCN (stereo partly drawn) [Compound 102, 21-N-{2′-[bis(2′-aminoethyl)amino]ethyl}-11-desoxy-17R,20S,24,25-tetrahydrofusid-21-amide] | 4 µg/mL (≈ 6.32 µM) | 4 µg/mL (≈ 6.32 µM) | 4 µg/mL (≈ 6.32 µM) | 4 µg/mL (≈ 6.32 µM) | 4 µg/mL (≈ 6.32 µM) | 16 µg/mL (≈ 25.3 µM) | 4 µg/mL (≈ 6.32 µM) | 16 µg/mL (≈ 25.3 µM) | 16 µg/mL (≈ 25.3 µM) | 4 µg/mL (≈ 6.32 µM) | 4 µg/mL (≈ 6.32 µM) | 4 µg/mL (≈ 6.32 µM) | 4 µg/mL (≈ 6.32 µM) | 16 µg/mL (≈ 25.3 µM) | 16 µg/mL (≈ 25.3 µM) | strong bacterial killing | strong bacterial killing
2 | CC(C)CCCC(C(=O)NCCN(CCN)CCN)[C@@H]1CC[C@@]2(C)C1C[C@@H](O)C1[C@@]3(C)CC[C@@H](O)[C@@H](C)C3CC[C@@]12C (stereo partly drawn) [Compound 103, 21-N-{2′-[bis(2′-aminoethyl)amino]ethyl}-16-desacetoxy-17R,20S,24,25-tetrahydrofusid-21-amide] | 1 µg/mL (≈ 1.69 µM) | 1 µg/mL (≈ 1.69 µM) | 1 µg/mL (≈ 1.69 µM) | > 125 µg/mL | 1 µg/mL (≈ 1.69 µM) | 4 µg/mL (≈ 6.77 µM) | 1 µg/mL (≈ 1.69 µM) | 16 µg/mL (≈ 27.1 µM) | 4 µg/mL (≈ 6.77 µM) | 1 µg/mL (≈ 1.69 µM) | 1 µg/mL (≈ 1.69 µM) | 1 µg/mL (≈ 1.69 µM) | 1 µg/mL (≈ 1.69 µM) | 4 µg/mL (≈ 6.77 µM) | 16 µg/mL (≈ 27.1 µM) |  | 
